Legend:
[1] = test system: estrogen receptor (ER)-positive, HER2-negative locally advanced or metastatic breast cancer; assay: AMEERA-3 open label randomized Phase 2 trial, efficacy (PFS, OS, ORR, CBR, DCR per RECIST 1.1 by ICR); assay type: in vivo, human
UGT1A1 = biological target: T1, UGT1A1 (Homo sapiens, UniProt P22309); conditions: cited from earlier work
T1 sequence (P22309 26-533): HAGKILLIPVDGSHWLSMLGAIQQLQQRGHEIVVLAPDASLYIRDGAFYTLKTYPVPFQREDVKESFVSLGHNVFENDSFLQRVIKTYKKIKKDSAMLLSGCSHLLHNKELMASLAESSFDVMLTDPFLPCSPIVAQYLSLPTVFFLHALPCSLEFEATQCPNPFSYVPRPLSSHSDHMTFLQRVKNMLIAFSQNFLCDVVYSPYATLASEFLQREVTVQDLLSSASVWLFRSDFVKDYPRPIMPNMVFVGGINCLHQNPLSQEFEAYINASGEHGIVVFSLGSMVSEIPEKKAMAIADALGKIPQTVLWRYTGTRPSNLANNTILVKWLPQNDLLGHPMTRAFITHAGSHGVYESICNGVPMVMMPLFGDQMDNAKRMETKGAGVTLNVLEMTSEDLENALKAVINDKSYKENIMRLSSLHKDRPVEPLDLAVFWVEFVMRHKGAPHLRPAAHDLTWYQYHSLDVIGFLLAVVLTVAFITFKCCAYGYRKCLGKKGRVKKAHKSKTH

[2] = AMEERA-3 safety: treatment-emergent adverse events, safety population; assay type: in vivo
Description: Secondary endpoints are defined as follows: • Overall survival: the time interval from the date of randomization to the date of documented death (due to any cause); • Objective response rate: the proportion of participants who have a confirmed complete response (CR) or partial response (PR), as best overall response (BOR) derived from overall response determined by ICR as per RECIST 1.1, from the date of randomization to the date of end of treatment; • Disease control rate: the proportion of participants who have a confirmed CR, PR, stable disease (SD), or Non-CR/Non-PD as BOR determined by ICR as per RECIST 1.1 from the date of randomization to the date of end of treatment; • Clinical benefit rate: the proportion of participants who have a confirmed CR, PR, SD, or Non-CR/Non-PD for at least 24 weeks determined by ICR as per RECIST 1.1, from the date of randomization to the date of end of treatment; • Progression-free survival as per ESR1 status: determined at Cycle 1 Day 1; • Overall safety profile: evaluated by adverse events/serious adverse events and laboratory abnormalities.
Concerning monitoring of adverse events, mention may be made of adverse events of special interest (AESI), who correspond to an adverse event (serious or nonserious) of scientific and medical concern specific to the Sponsor's product or program, for which ongoing monitoring and immediate notification by the Investigator to the Sponsor is required. Such events may require further investigation in order to characterize and understand them. For example: pregnancy of a participant or of a female partner of a participant entered in a study with IMP, symptomatic overdose with IMP, increase in ALT of a grade equal to or greater than 3, or photosensitivity.
The analysis populations were defined as follows: • Enrolled population: all patients who signed the informed consent form. • Intent-to-treat (ITT) population: all patients from the enrolled population and for whom there was a confirmation of successful allocation of a randomization number by Interactive Response Technology (IRT). Patients were analyzed according to the treatment arm assigned at randomization. • Safety population: all patients randomly assigned to study intervention and who took at least one dose of study intervention. Patients were analyzed according to the treatment arm they actually received.
The overview of adverse events (TEAEs: Treatment Emergent Adverse Events; SAEs: Serious Adverse Events; AESI: Adverse Events of Special Interest) is presented in Table 13.

UGT1A4 = biological target: T2, UGT1A4 (Homo sapiens, UniProt P22310); conditions: cited from earlier work
T2 sequence (P22310 29-534): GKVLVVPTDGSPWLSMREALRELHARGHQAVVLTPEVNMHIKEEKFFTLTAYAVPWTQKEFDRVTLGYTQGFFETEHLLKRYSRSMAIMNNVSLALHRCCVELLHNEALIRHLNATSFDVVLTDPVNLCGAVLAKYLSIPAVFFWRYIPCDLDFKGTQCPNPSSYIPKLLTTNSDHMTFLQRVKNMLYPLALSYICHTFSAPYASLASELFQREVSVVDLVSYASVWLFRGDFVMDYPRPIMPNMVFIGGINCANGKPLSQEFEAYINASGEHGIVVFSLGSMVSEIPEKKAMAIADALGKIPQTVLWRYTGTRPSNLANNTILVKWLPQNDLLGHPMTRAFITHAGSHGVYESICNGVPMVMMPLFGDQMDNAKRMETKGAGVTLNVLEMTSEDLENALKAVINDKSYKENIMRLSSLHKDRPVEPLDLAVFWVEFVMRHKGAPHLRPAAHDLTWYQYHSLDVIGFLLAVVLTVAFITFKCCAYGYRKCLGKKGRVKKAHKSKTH

[3] = amcenestrant 400 mg QD, Kaplan-Meier

Question: Which results are given for `O=C(O)c1ccc2c(c1)CCCC(c1ccc(Cl)cc1Cl)=C2c1ccc(O[C@H]2CCN(CCCF)C2)cc1` [Amcenestrant, 6-(2,4-dichlorophenyl)-5-[4-[(3S)-1-(3-fluoropropyl)pyrrolidin-3-yl]oxyphenyl]-8,9-dihydro-7H-benzo[7]annulene-2-carboxylic acid]?
Answer: Reduction in risk for disease progression or death ([1]; ESR1 mutation at baseline, amcenestrant compared to PCEM): 10.0%; Progression-free survival rate at 12 months [1, 3]: 20.4%; Progression-free survival rate at six months [1, 3]: 35.5%; Substrate of UGT1A1 (UGT1A1): substrate; Bradycardia/QTc prolongation ([2]; amcenestrant treatment arm): no bradycardia/QTc prolongation is observed; Gastrointestinal disorders ([2]; mostly of Grade 1 or 2): 44.8%; Skin and subcutaneous tissue disorders ([2]; mostly of Grade 1 or 2): 18.9%; Participants with any AESI, % ([2]; safety population): (0.7) %; Participants with any TEAE leading to treatment discontinuation, % ([2]; safety population): (3.5) %; Participants with any TEAE, % ([2]; safety population): (82.5) %; Participants with any grade ≥3 TEAE, % ([2]; safety population): (21.7) %; Participants with any treatment emergent SAE, % ([2]; safety population): (16.1) %; Participants with any treatment-related TEAE, % ([2]; safety population): (44.8) %; Participants with any grade 5 TEAE, % ([2]; safety population, during the treatment period): (3.5) %; Substrate of UGT1A4 (UGT1A4): substrate

From patent US20250186393A1 (SANOFI, priority 2022, published 2025)
